Assay [1] deals with SARS-CoV-2. The format is cell-based.
The subject of assay [2] is SARS-CoV-2. The format is cell-based. Particulars: for antiviral activity against SARS-CoV-2 in iAECs: iAEC2.
Assay [3] deals with SARS-CoV-2. Description: SARS-CoV-2 infection of Caco-2 cells with MEK inhibitors. The format is cell-based. Particulars: Caco-2, 10 µM.
Assay [4] concerns SARS-CoV-2. The assay can be described thus: microbe, parasite or virus in culture. Particulars: Severe acute respiratory syndrome coronavirus 2, Huh-7, 48 h. The format is cell-based.
The subject of assay [5] is SARS-CoV-2. The assay can be described thus: Hit validation across cell systems. The format is cell-based. Particulars: Huh7, LNCaP, Caco-2, Vero E6, iAEC2.
Assay [6] has as its system SARS-CoV-2. The assay can be described thus: Viral binding assay on Huh7 cells. The format is cell-based. Particulars: lactoferrin 1,250 and 6,250 nM, remdesivir 10 nM, NaClO3 7 d.
Assay [7] has as its system SARS-CoV-2. The format is cell-based. Particulars: Huh7, MOI of 1, 1,000 nM, 24 and 48 h p.i., versus untreated.
The test system of assay [8] is SARS-CoV-2. Particulars: cited from earlier work.

Turning to `CCN(CC)CCCC(C)Nc1ccnc2cc(Cl)ccc12` (centres unmarked) [chloroquine], the “concentrations at which efficacious” value in assay [1] (Huh7, dose-response confirmation) was “above 1 µM”. `CCc1nc(C(N)=O)c(Nc2ccc(N3CCC(N4CCN(C)CC4)CC3)c(OC)c2)nc1NC1CCOCC1` [Gilteritinib]: the “antiviral activity against SARS-CoV-2 in iAECs” value (“antiviral activity … in iAECs” below) in assay [2] is on record as “dose-responsive antiviral activity”. Take `CC(=O)Nc1cccc(-n2c(=O)n(C3CC3)c(=O)c3c(Nc4ccc(I)cc4F)n(C)c(=O)c(C)c32)c1` [trametinib]: the “increase of viral infection” value in assay [1] is “greater than twofold increase”. In addition, the exacerbation of infection result in assay [3] was “exacerbation effect was observed”. As to `CCC(CC)COC(=O)[C@H](C)N[P@](=O)(OC[C@H]1O[C@@](C#N)(c2ccc3c(N)ncnn23)[C@H](O)[C@@H]1O)Oc1ccccc1` [Remdesivir], in assay [2], the “antiviral activity at high MOI” value is “retained antiviral activity” and the “antiviral activity … in iAECs” value is reported as “dose-responsive antiviral activity”. This molecule yielded an IC50 in assay [4] of 6.7 nM. In addition, the “efficacy across all tested cell systems” value in assay [5] is given as “maintained efficacy across all tested cell systems”. Consider `[Na+].[O-][Cl+2]([O-])[O-]` [NaClO3], for which, in assay [6], the “SARS-CoV-2 attachment to Huh7 cells” value was “reduced”. For `CC(C)[N+]1(C)[C@@H]2CC[C@H]1C[C@@H](OC(=O)C(CO)c1ccccc1)C2` (some centres unmarked) [Ipratropium Bromide], the “antiviral activity … in iAECs” value in assay [2] is on record as “dose-responsive antiviral activity”. For the same molecule, the “efficacy across all tested cell systems” value in assay [5] is given as “maintained efficacy across all tested cell systems”. For `Cn1cnc2c(F)c(Nc3ccc(Br)cc3F)c(C(=O)NOCCO)cc21` [binimetinib], the “increase of viral infection” value in assay [1] was “greater than twofold increase”. The exacerbation of infection result in assay [3] is “exacerbation effect was observed”. Regarding `O=C(c1ccc(F)c(F)c1Nc1ccc(I)cc1F)N1CC(O)([C@@H]2CCCCN2)C1` [cobimetinib], the “increase of viral infection” value in assay [1] is listed as “greater than twofold increase”. Also, the “percentage of viral RNA-positive cells” value in assay [7] is “increased at 48 h p.i., but not at 24 h p.i”. Turning to `CC(C)/N=c1\cc2n(-c3ccc(Cl)cc3)c3ccccc3nc-2cc1Nc1ccc(Cl)cc1` [CLOFAZIMINE], the “antiviral activity … in iAECs” value in assay [2] is listed as “dose-responsive antiviral activity”. In addition, the “viral infection in a hamster model of disease” value in assay [8] is “block viral infection”.

On to `CC(NC(=O)[C@H](Cc1ccccc1)NC(=O)OCc1ccccc1)C(=O)CF` (some centres unmarked) [Z-FA-FMK], for which, in assay [5], the “efficacy across all tested cell systems” value is recorded as “maintained efficacy across all tested cell systems”. As to `O=C(NC1CCN(CCCCC2(C(=O)NCC(F)(F)F)c3ccccc3-c3ccccc32)CC1)c1ccccc1-c1ccc(C(F)(F)F)cc1` [Lomitapide], the “antiviral activity … in iAECs” value in assay [2] was “dose-responsive antiviral activity”. In addition, the “efficacy across all tested cell systems” value in assay [5] is “maintained efficacy across all tested cell systems”.

Take “transferrin: transferrin (Sigma-Aldrich; T2036), control to rule out iron chelation”: the “antiviral activity (iron chelation control)” value in assay [1] (Huh7, 6,250 nM) was “inactive”. Regarding `Cc1cc(OCCN2CCOCC2)nn1-c1ccc2ccccc2c1` [S1RA], in assay [2], the “antiviral activity at high MOI” value is on record as “retained antiviral activity” and the “antiviral activity … in iAECs” value is on record as “dose-responsive antiviral activity”.

A word on the IC50: it is the concentration that gives 50% inhibition. Higher therefore signals lower potency.

The record behind these values is PMC8433531 (Proceedings of the National Academy of Sciences of the …, 2021).
